These results are taken from patent US8227240B2, “Systems for screening pharmaceutical chemicals” (The Washington University, priority 2001, dated 2012).

The test system of this test is reconstituted tissue membrane (fibroblast non-muscle myosin / actin cytoskeleton). The test is described as follows: Tissue indentation method in 96-well plate: peak force of reconstituted tissue membrane. Format: cell-based. As for the experimental part:
A triangular frame made of stainless steel wire 1 mm in diameter was employed as a scaffold on which the reconstituted tissue formed. The wells are slightly tapered toward the bottom and the frame is securely positioned 1 mm above the bottom of the well (FIG. 11a). The non-polymerized solution of collagen containing cells and appropriate cell culture media as described above was poured into the wells filling the wells to a level 3 mm above the bottom (FIG. 11b). The 96-well plate was incubated at 37° C. with 5% CO2. During the incubation, cells compressed collagen matrices by squeezing liquid out from the porous collagen matrix. Without the wire frame, the reconstituted tissue contracted into a small sphere floating in the tissue culture medium. It was discovered that by utilizing different shapes of wire frames the collagen matrix was compressed into shapes corresponding to shapes of the frames. Other wire frame shapes, such as one shown in FIG. 11b, produced tissue strips with different widths. A porous support material such as a Velcro fastener was not required to facilitate tissue adhesion even to the non-porous stainless steel surfaces of a wire. The collagen was compressed to a greater extent at the outer portion of the membrane or strip. Therefore, this outer portion of the membrane can withstand stress produced by the cells and prevented it from ripping the membrane off the wire frame.
To assess the response of the tissue model samples to test agents, the resistance of the tissue samples to stretch is measured by a probe coupled to a force transducer. The stiffness of the tissue is related to the force required to move the probe by a specified amount once the probe contacts the tissue. […]
The stage is raised until the probe tip touches the membrane or strip of reconstituted tissue. Contact of the tip with the sample is detected by a sudden increase in the force registered by the isometric force transducer. […] During this trajectory the tip comes in contact with the tissue specimen and stretches it as the force is continually recorded by a data recorder. […]

On to `C=C1[C@@H](C)[C@H]2[C@H](Cc3ccccc3)NC(=O)[C@]23[C@H](OC(C)=O)/C=C/[C@@](C)(O)C(=O)[C@@H](C)C/C=C/[C@H]3[C@@H]1O` [CD, cytochalasin D], for which, where the note is “40 nM CD, nearly 15 min after addition, after 20% FBS”, the “decrease of peak force from its initial level” value is reported as “about 40%”. Besides, the peak force entry (2 μM CD, 20 min after addition) is “further reduction”. For the same compound, under “96-well plate, after 10% FBS”, the “reduction of the height of the force peaks” value turned out to be 60%.
